# Source: US12577206B2 (BRISTOL-MYERS SQUIBB COMPANY, priority 2020, dated 2026)
# Legend:
# human FPR2 = molecular target: T1, human FPR2 (Homo sapiens, UniProt P25090); assay: FPR2 cyclic adenosine monophosphate (cAMP) assay; assay type: cell-based; conditions: CHO cells overexpressing human FPR2; forskolin 5 μM; inhibition of cAMP production; HTRF; read-out: hFPR2 cAMP2 EC50
# T1 sequence (P25090 1-351): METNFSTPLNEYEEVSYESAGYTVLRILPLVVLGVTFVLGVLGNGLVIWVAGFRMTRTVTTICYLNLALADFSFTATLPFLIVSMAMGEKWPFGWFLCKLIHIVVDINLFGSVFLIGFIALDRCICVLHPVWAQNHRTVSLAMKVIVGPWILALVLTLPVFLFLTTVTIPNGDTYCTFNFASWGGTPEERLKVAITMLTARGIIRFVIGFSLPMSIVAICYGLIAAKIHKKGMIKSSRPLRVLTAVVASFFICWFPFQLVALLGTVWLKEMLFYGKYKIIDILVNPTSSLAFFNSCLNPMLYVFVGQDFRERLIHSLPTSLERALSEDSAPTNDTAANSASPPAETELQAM
# How it was run: (§1)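 CHO/hFPR1 4,000 cells/well, forskolin 10 μM final; CHO/hFPR2 2,000 cells/well, forskolin 5 μM final. IBMX 200 μM, DMSO 1%, DPBS + Ca/Mg + 0.1% BSA, 30 min rt. HTRF cAMP; 4-PL fit.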
# human FPR1 = molecular target: T2, human FPR1 (Homo sapiens, UniProt P21462); assay: FPR1 cyclic adenosine monophosphate (cAMP) assay; assay type: cell-based; conditions: CHO cells overexpressing human FPR1; forskolin 10 μM; inhibition of cAMP production; HTRF; read-out: hFPR1 cAMP2 EC50
# T2 sequence (P21462 1-350): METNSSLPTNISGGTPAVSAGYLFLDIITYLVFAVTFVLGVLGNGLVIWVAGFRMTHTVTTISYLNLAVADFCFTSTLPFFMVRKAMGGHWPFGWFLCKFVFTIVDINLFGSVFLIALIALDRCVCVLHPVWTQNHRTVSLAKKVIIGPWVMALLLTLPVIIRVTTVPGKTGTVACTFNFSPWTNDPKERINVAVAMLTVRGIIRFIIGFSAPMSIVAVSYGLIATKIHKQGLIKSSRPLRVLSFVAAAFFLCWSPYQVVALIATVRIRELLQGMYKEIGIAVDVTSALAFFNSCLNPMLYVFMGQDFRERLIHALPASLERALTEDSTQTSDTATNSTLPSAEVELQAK
# How it was run: as §1
Compound,EC50 (human FPR2) [nM],EC50 (human FPR1) [nM]
"COc1cc(F)c(-c2c(NC(=O)c3ccc(OC(F)F)cc3)c(=O)n(-c3nc(C4CCN(S(C)(=O)=O)CC4)ccc3Cl)n2C)c(F)c1 [Example 316, N-{2-[3-chloro-6-(1-methanesulfonylpiperidin-4-yl)pyridin-2-yl]-5-(2,6-difluoro-4-methoxyphenyl)-1-methyl-3-oxo-2,3-dihydro-1H-pyrazol-4-yl}-4-(difluoromethoxy)benzamide]",2,> 5000
"COc1cc(F)c(-c2c(NC(=O)c3ccc(OC(F)F)cc3)c(=O)n(-c3cccc(CO)n3)n2C)c(F)c1 [Example 81, N-[5-(2,6-difluoro-4-methoxyphenyl)-2-[6-(hydroxymethyl)pyridin-2-yl]-1-methyl-3-oxo-2,3-dihydro-1H-pyrazol-4-yl]-4-(difluoromethoxy)benzamide]",17,> 10000
"COc1ccc(-c2c(NC(=O)c3ccc(OC(F)F)cc3)c(=O)n(-c3ncccc3C(F)(F)F)n2C)cc1Cl [Example 221, N-(5-(3-chloro-4-methoxyphenyl)-1-methyl-3-oxo-2-(3-(trifluoromethyl)pyridin-2-yl)-2,3-dihydro-1H-pyrazol-4-yl)-4-(difluoromethoxy)benzamide]",141,> 5000
"COc1cc(F)c(-c2c(NC(=O)c3ccc(OC(F)F)cc3)c(=O)n(-c3cccc(C(F)(F)F)n3)n2C)c(F)c1 [Example 156, N-[5-(2,6-difluoro-4-methoxyphenyl)-1-methyl-3-oxo-2-[6-(trifluoromethyl)pyridin-2-yl]-2,3-dihydro-1H-pyrazol-4-yl]-4-(difluoromethoxy)benzamide]",15,4000
"COc1cc(F)c(-c2c(NC(=O)c3ccc(OC(F)F)cc3)c(=O)n(-c3ncccc3C#N)n2C)c(F)c1 [Example 55, N-[2-(3-cyanopyridin-2-yl)-5-(2,6-difluoro-4-methoxyphenyl)-1-methyl-3-oxo-2,3-dihydro-1H-pyrazol-4-yl]-4-(difluoromethoxy)benzamide]",8,9600
"COc1cc(F)c(-c2c(NC(=O)c3ccc(OC(F)F)cc3)c(=O)n(-c3nc(N(C)C)ccc3C(F)(F)F)n2C)c(F)c1 [Example 136, N-[5-(2,6-difluoro-4-methoxyphenyl)-2-[6-(dimethylamino)-3-(trifluoromethyl)pyridin-2-yl]-1-methyl-3-oxo-2,3-dihydro-1H-pyrazol-4-yl]-4-(difluoromethoxy)benzamide]",3,6800
"COc1cc(F)c(-c2c(NC(=O)c3ccc(OC(F)F)cc3)c(=O)n(-c3cc(F)ccc3C)n2C)c(F)c1 [Example 14, N-[5-(2,6-difluoro-4-methoxyphenyl)-2-(5-fluoro-2-methylphenyl)-1-methyl-3-oxo-2,3-dihydro-1H-pyrazol-4-yl]-4-(difluoromethoxy)benzamide]",23,> 10000
"COc1cc(F)c(-c2c(NC(=O)c3ccc(OC(F)F)cc3)c(=O)n(-c3nc(N4CC(C)(O)C4)ccc3C(F)(F)F)n2C)c(F)c1 [Example 138, N-[5-(2,6-difluoro-4-methoxyphenyl)-2-[6-(3-hydroxy-3-methylazetidin-1-yl)-3-(trifluoromethyl)pyridin-2-yl]-1-methyl-3-oxo-2,3-dihydro-1H-pyrazol-4-yl]-4-(difluoromethoxy)benzamide]",4,4800
"COc1cc(F)c(-c2c(NC(=O)c3ccc(OC(F)F)cc3)c(=O)n(-c3ccc(C#N)cn3)n2C)c(F)c1 [Example 54, N-[2-(5-cyanopyridin-2-yl)-5-(2,6-difluoro-4-methoxyphenyl)-1-methyl-3-oxo-2,3-dihydro-1H-pyrazol-4-yl]-4-(difluoromethoxy)benzamide]",19,3300
"COc1cc(F)c(-c2c(NC(=O)c3ccc(C4CC4)cc3)c(=O)n(-c3ccccc3)n2C)c(F)c1 [Example 16, 4-cyclopropyl-N-[5-(2,6-difluoro-4-methoxyphenyl)-1-methyl-3-oxo-2-phenyl-2,3-dihydro-1H-pyrazol-4-yl]benzamide]",30,> 10000
"COc1cc(F)c(-c2c(NC(=O)c3ccc(OC(F)F)cc3)c(=O)n(-c3nc(C)ccc3C#N)n2C)c(F)c1 [Example 357, N-(2-(3-Cyano-6-methylpyridin-2-yl)-5-(2,6-difluoro-4-methoxyphenyl)-1-methyl-3-oxo-2,3-dihydro-1H-pyrazol-4-yl)-4-(difluoromethoxy)benzamide]",5,> 10000
"COc1cc(OC(CO)C(F)(F)F)nc(-n2c(=O)c(NC(=O)c3ccc(OC(F)F)cc3)c(-c3c(F)cc(OC)cc3F)n2C)c1 (stereo not drawn) [Example 381, N-(5-(2,6-Difluoro-4-methoxyphenyl)-2-(4-methoxy-6-((1,1,1-trifluoro-3-hydroxypropan-2-yl)oxy)pyridin-2-yl)-1-methyl-3-oxo-2,3-dihydro-1H-pyrazol-4-yl)-4-(difluoromethoxy)benzamide]",2,1900
"COc1cc(C2CC2)nc(-n2c(=O)c(NC(=O)c3ccc(OC(F)F)cc3)c(-c3c(F)cc(OC)cc3F)n2C)c1 [Example 88, N-(2-(6-cyclopropyl-4-methoxypyridin-2-yl)-5-(2,6-difluoro-4-methoxyphenyl)-1-methyl-3-oxo-2,3-dihydro-1H-pyrazol-4-yl)-4-(difluoromethoxy)benzamide]",2,6300
"COc1cc(F)c(-c2c(NC(=O)c3ccc(OC(F)F)cc3)c(=O)n(-c3cccc(CN4CCN(C)CC4)n3)n2C)c(F)c1 [Example 205, N-[5-(2,6-difluoro-4-methoxyphenyl)-1-methyl-2-{6-[(4-methylpiperazin-1-yl)methyl]pyridin-2-yl}-3-oxo-2,3-dihydro-1H-pyrazol-4-yl]-4-(difluoromethoxy)benzamide]",25,> 10000
"COc1ccc(-c2c(NC(=O)c3ccc(OC(F)F)cc3)c(=O)n(-c3ncccc3Cl)n2C)cc1 [Example 245, N-[2-(3-chloropyridin-2-yl)-5-(4-methoxyphenyl)-1-methyl-3-oxo-2,3-dihydro-1H-pyrazol-4-yl]-4-(difluoromethoxy)benzamide]",20,1200
"COc1cc(F)c(-c2c(NC(=O)c3ccc(OC(F)F)cc3)c(=O)n(-c3nc(OCC(C)(C)O)ccc3C(F)(F)F)n2C)c(F)c1 [Example 288, N-[5-(2,6-difluoro-4-methoxyphenyl)-2-[6-(2-hydroxy-2-methylpropoxy)-3-(trifluoromethyl)pyridin-2-yl]-1-methyl-3-oxo-2,3-dihydro-1H-pyrazol-4-yl]-4-(difluoromethoxy)benzamide]",1,> 10000
"CNC(=O)CNc1ccc(C(F)(F)F)c(-n2c(=O)c(NC(=O)c3ccc(OC(F)F)cc3)c(-c3c(F)cc(OC)cc3F)n2C)n1 [Example 238, N-[5-(2,6-difluoro-4-methoxyphenyl)-1-methyl-2-(6-{[(methylcarbamoyl)methyl]amino}-3-(trifluoromethyl)pyridin-2-yl)-3-oxo-2,3-dihydro-1H-pyrazol-4-yl]-4-(difluoromethoxy)benzamide]",3,> 10000
"COc1ccc(-c2c(NC(=O)c3ccc(OC(F)F)cc3)c(=O)n(-c3nc(Cl)ccc3C(F)(F)F)n2C)c(F)c1 [Example 295, N-{2-[6-chloro-3-(trifluoromethyl)pyridin-2-yl]-5-(2-fluoro-4-methoxyphenyl)-1-methyl-3-oxo-2,3-dihydro-1H-pyrazol-4-yl}-4-(difluoromethoxy)benzamide]",1,1500
"COc1cc(F)c(-c2c(NC(=O)c3ccc(OC(F)F)cc3)c(=O)n(-c3nc(N4CC5(CC(O)C5)C4)ccc3Cl)n2C)c(F)c1 [Example 299, N-[2-(3-chloro-6-{6-hydroxy-2-azaspiro[3.3]heptan-2-yl}pyridin-2-yl)-5-(2,6-difluoro-4-methoxyphenyl)-1-methyl-3-oxo-2,3-dihydro-1H-pyrazol-4-yl]-4-(difluoromethoxy)benzamide]",8,> 5000
"COc1cc(F)c(-c2c(NC(=O)c3ccc(C(F)(F)F)cc3)c(=O)n(-c3ccccc3)n2C)c(F)c1 [Example 5, N-[5-(2,6-difluoro-4-methoxyphenyl)-1-methyl-3-oxo-2-phenyl-2,3-dihydro-1H-pyrazol-4-yl]-4-(trifluoromethyl)benzamide]",10,2900
"COc1cc(F)c(-c2c(NC(=O)c3ccc(OC(F)F)cc3)c(=O)n(-c3nc(Nc4ncn[nH]4)ccc3C(F)(F)F)n2C)c(F)c1 [Example 234, N-[5-(2,6-difluoro-4-methoxyphenyl)-1-methyl-3-oxo-2-{6-[(1H-1,2,4-triazol-5-yl)amino]-3-(trifluoromethyl)pyridin-2-yl}-2,3-dihydro-1H-pyrazol-4-yl]-4-(difluoromethoxy)benzamide]",3,2900
